Source: article PMC11695203, “A new peptide inhibitor of C1QBP exhibits potent anti‐tumour activity against triple negative breast cancer by impairing mitochondrial function and suppressing homologous recombination repair” (Clinical and Translational Medicine, 2025)

Key:
[1] = system: HEK-293T and MCF-10A cell lines; details: 30 μM, 24 hours
[2] = In vivo toxicity: body weight and HE staining of spleen, liver, kidney; details: PDBAG1 10 mg/kg, PJ34-HCL 1 mg/kg i.p. every 3 days
Protocol: (§1) Four‐week‐old BALB/c nude mice (Charles River Laboratories, Beijing, China) were subcutaneously inoculated in the breast fat pad with 1 × 10^7 MDA‐MB‐231 cells. The treatment group received 10 mg/kg PDBAG1, while the control group was administered an equal volume of PBS. For preliminary experiment of immunocompetent mice, 4‐week‐old BALB/c mice (Charles River Laboratories) were subcutaneously inoculated in the mammary fat pad with 1 × 10^6 4T1 cells. The treatment group received 10 mg/kg PDBAG1, while the control group was administered an equal volume of PBS. For evaluating the PJ34‐HCL combination, 28 randomly assigned BALB/c nude mice were divided into respective treatment groups as follows: Group 1 served as a negative control and received PBS; Group 2 received intraperitoneal injections of 10 mg/kg PDBAG1 every 3 days; Group 3 received 1 mg/kg PJ34‐HCL every 3 days; Group 4 was treated with a combination of 10 mg/kg PDBAG1 and 1 mg/kg PJ34‐HCL every 3 days. Both PDBAG1 and PJ34‐HCL were dissolved in specific concentrations of normal saline and administered intraperitoneally. All mice were sacrificed 4 weeks after inoculation, and their subcutaneous xenografts were resected and weighed. Subsequently, formalin‐fixed subcutaneous tumours were processed into paraffin‐embedded sections for routine IHC analysis. […]

[3] = system: MDA-MB-231 and MDA-MB-468 cells; details: FITC-labelled PDBAG1 50 µM, 6 h, fluorescence microscopy
Protocol: The cells were seeded in a 24‐well plate, and FITC‐labelled PDBAG1 was added to the cell culture medium at a final concentration of 50 µM. After three washes with PBS, performed 6 h post peptide addition, the samples were fixed with 4% paraformaldehyde for 15 min and stained with DAPI (5 µg/mL) for 5 min. Following PBS washing, fluorescence microscopy was employed for observation.

C1QBP = details: cited from earlier work
Source text: C1QBP, targeted by PDBAG1, predominantly localises in the mitochondrial matrix and plays a crucial role in mitochondrial protein translation and function.[3] It represents a promising therapeutic target for various human cancers, including breast cancer. We observed significant overexpression of C1QBP in the TNBC subtype, which correlated with worse DFS. Based on our findings, we believe PDBAG1 primarily affects tumour cells, with minimal toxicity to normal cells. Although PDBAG1's precursor peptide is derived from normal adipose tissue, its impact on adipose metabolism is likely less pronounc ...

MDA-MB-231 xenograft = assay: MDA-MB-231 tumour model in nude mice; assay type: in vivo, BALB/c nude mice; details: PJ34-HCL combination study, harvested tumours
Protocol: as §1

MDA-MB-231 cells = assay: CCK-8 assay, MDA-MB-231; assay type: cell-based, human; details: CCK-8, MDA-MB-231 and MDA-MB-468, co-treated 72 h / 24 h
Protocol: The cells were cultured at the corresponding cell densities in 96‐well plates. Following treatment with specific concentrations of reagents for designated durations, the CCK8 reagent was added to each well at a final ratio of 10% (v/v). After incubation for 2 h, the absorbance at 450 nm was measured using a microplate reader (H4, Synergy). For the Edu assay, logarithmic growth phase cells were inoculated into 96‐well plates at a density of 3 × 10^4 cells/mL. Subsequently, they were treated with specific concentrations of reagents for designated durations and then replaced with EdU medium containing a final concentration of 10 µmol/L. The cells were incubated for an additional period of 2 h. Following PBS washing and fixation with 4% paraformaldehyde for 30 min, Apollo staining reaction solution was added according to instructions and allowed to react for another 30 min. This was followed by addition of DAPI staining reaction solution for a duration of 10 min before washing again with PBS. Three randomly selected fields of vision from each group in each well were calculated and photographed under a fluorescence microscope. […] Three random fields of view were selected to quantify the number of cells that traversed through the microporous membrane.

human C1QBP 74–282 = molecular target: T1, human C1QBP 74–282 (human, UniProt Q07021 74-282); assay: ITC; PDBAG1 (500 µM) in the syringe into C1QBP 74–282 (17.0 µM) in the cell, 25°C, MicroCal VP ITC, no Zn2+, one set-of-sites model; buffer by the methods 20 mM HEPES pH 7.5, 600 mM NaCl, 1 mM EDTA, 1 mM EGTA, 5% glycerol, by the legend 20 mM potassium phosphate, 100 mM NaCl, pH 7.4; details: both partners purified
T1 construct: also called p32; source: vector a gift from Dr Adrian R. Krainer
T1 sequence (looked up): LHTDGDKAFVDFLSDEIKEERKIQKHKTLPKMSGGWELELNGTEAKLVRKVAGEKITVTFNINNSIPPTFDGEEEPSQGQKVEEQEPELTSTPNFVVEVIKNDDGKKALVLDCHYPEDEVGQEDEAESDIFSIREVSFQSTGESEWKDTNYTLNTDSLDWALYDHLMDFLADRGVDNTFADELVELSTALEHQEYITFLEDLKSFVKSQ

Molecule: Ac-GRKKRRQRRRPPQQASKKVCIVGSGNWGSAIA-NH2 [PDBAG1]
- Morphological alterations in non-tumour cells [1]: no obvious in morphological alterations
- Body weight during or after drug administration [2]: no significant differences
- HE staining of spleen, liver and kidney [2]: no notable deviations from normal structure and morphology
- Cell penetration [3]: potent cell‐penetrating properties

Molecule: CGKRK [tumour-specific vascular homing peptide]
- Binding to C1QBP (C1QBP): can bind to cell surface‐associated C1QBP

Molecule: CN(C)CC(=O)Nc1ccc2[nH]c(=O)c3ccccc3c2c1.Cl [PJ34‐HCL]
- C1QBP protein in tumour tissue (IHC, western blot) (MDA-MB-231 xenograft): no substantial changes
- Cell viability with PARP inhibitor, alone or combined with PDBAG1 (MDA-MB-231 cells): exhibited significant effects

Molecule: CGNKRTRGC [LyP‐1]
- Binding to C1QBP (C1QBP): can bind to cell surface‐associated C1QBP

B1: PDBAG1 (peptide derived from breast adipose tissue GPD1) (peptide)
peptide: GRKKRRQRRRPPQQASKKVCIVGSGNWGSAIA
notes: stretch of glycerol-3-phosphate dehydrogenase 1 (GPD1), found by peptidomics in benign breast adipose tissue of patients; also called peptide PDBAG1; source: synthetic peptide (Fmoc solid-phase synthesis, Shanghai Science Peptide Biological Technology Co)
- Kd (human C1QBP 74–282): 334 nM
